{"source": "patent US10328128B2", "about": "“Treatment of infection by human enterovirus D68” (priority 2014, dated 2019)", "format_in_all_cases": "cell-based, Human enterovirus D68", "key": {"[1]": {"tested_on": "EV-D68 strain USA-MO/18949", "assay": "CPE inhibition assay in RD cells", "settings": "Enterovirus D, EVD68, 120 h; RD cells, 100 CCID50 virus, 33° C., five days, strain USA-MO/18949; read-out: Mean EC50 ± SD"}, "[2]": {"tested_on": "EV-D68 strain USA-MO/18949", "assay": "CPE inhibition assay repeated in HeLa H1 cells", "settings": "Enterovirus D, EVD68"}, "[3]": {"tested_on": "EV-D68 strain USA-IL/18956", "assay": "CPE inhibition assay in RD cells", "settings": "Enterovirus D, EVD68, 120 h; RD cells, 100 CCID50 virus, 33° C., five days, strain USA-IL/18956; read-out: Mean EC50 ± SD"}, "EV-D68 strain Fermon": {"tested_on": "EV-D68 strain Fermon", "assay": "CPE inhibition assay repeated in HeLa H1 cells", "settings": "Enterovirus D, EVD68"}, "[4]": {"tested_on": "EV-D68 strain USA-MO/18947", "assay": "CPE inhibition assay repeated in HeLa H1 cells", "settings": "Enterovirus D, EVD68"}, "four EV-D68 strains [5]": {"tested_on": "four EV-D68 strains", "assay": "microbe, parasite or virus in culture", "settings": "RD cells"}, "[6]": {"tested_on": "EV-D68 strain USA-MO/18947", "assay": "CPE inhibition assay in RD cells", "settings": "Enterovirus D, EVD68, 120 h; RD cells, 100 CCID50 virus, 33° C., five days, strain USA-MO/18947; read-out: Mean EC50 ± SD"}, "four EV-D68 strains [7]": {"tested_on": "four EV-D68 strains", "assay": "CPE inhibition assay in HeLa H1 cells, text summaries over the strains", "settings": "Enterovirus D, EVD68, all four strains, read-out: EC50 values, range over all four strains in HeLa H1 cells"}, "EV-D68 Fermon strain": {"tested_on": "EV-D68 Fermon strain", "assay": "CPE inhibition assay over a range of virus doses", "settings": "Enterovirus D, EVD68; 100-fold virus dose range; strain not given; read-out: EC50 variation over a range of virus doses", "protocol": "Antiviral activity was assessed in a homogeneous cell-based assay that measured inhibition of viral cytopathic effect in human rhabdomyosarcoma cells (RD; ATCC CCL-136). The viruses included three representative EV-D68 strains from the 2014 outbreak (USA-MO/18947, USA-MO/18949, USA-IL/18956) (Brown et al. 2014. Seven Strains of Enterovirus D68 Detected in the United States during the 2014 Severe Respiratory Disease Outbreak. Genome Announc 2:e01201-01214), as well as the 1962 prototype strain (Fermon) (Schieble et al. 1967. A probable new human picornavirus associated with respiratory diseases. Am J Epidemiol 85:297-310). For the CPE inhibition assay, half-log10 dilutions of drug compound (10 μM to 0.001 μM) were combined with 100 CCID50 (50% cell culture infectious dose) of virus and added to monolayers of RD cells (5000 cells per well) in 384-well, white, flat-bottom microplates. Plates were incubated at 33° C. and 5% CO2 for five days, and cell viability was assessed using ATPLite® (Perkin Elmer, Waltham, Mass.) by adding 15 μL of cell lysis buffer and then 15 μL of substrate solution, following the manufacturer's recommendations.\nIn both studies, the methods were somewhat different from our approach. […] For the other compounds tested, similar EC50 values were observed across this same dose range. […]"}, "[8]": {"tested_on": "EV-D68 1962 prototype strain (Fermon)", "assay": "CPE inhibition assay in RD cells", "settings": "Enterovirus D, EVD68, 120 h; RD cells, 100 CCID50 virus, 33° C., five days, strain Fermon; read-out: Mean EC50 ± SD"}, "[9]": {"tested_on": "EV-D68 strain USA-IL/18956", "assay": "CPE inhibition assay repeated in HeLa H1 cells", "settings": "Enterovirus D, EVD68"}}}
{"smiles": "Cc1cc(CCCOc2c(C)cc(-c3noc(C(F)(F)F)n3)cc2C)on1", "note": "[Pleconaril, pleconaril]", "values": [{"measurement": "EC50", "setting": "[1]", "result": "6.09 ± 0.26", "unit": "µM"}, {"measurement": "EC50", "setting": "[2]", "result": 0.358, "unit": "µM"}, {"measurement": "EC50", "setting": "[3]", "result": "6.11 ± 1.05", "unit": "µM"}, {"measurement": "EC50", "setting": "EV-D68 strain Fermon", "result": 0.36, "unit": "µM"}, {"measurement": "EC50", "setting": "[4]", "result": 0.131, "unit": "µM"}, {"measurement": "concentrations at which activity against the 2014 strains was detected", "setting": "four EV-D68 strains [5]; 2014 strains", "result": "greater than 4 μM"}, {"measurement": "EC50 against the 2014 strains relative to the Fermon strain", "setting": "four EV-D68 strains [5]; higher against 2014 strains", "result": "about 10 fold"}, {"measurement": "EC50", "setting": "[6]", "result": "4.44 ± 0.55", "unit": "µM"}, {"measurement": "EC50", "setting": "four EV-D68 strains [7]", "result": "0.13 to 0.36", "unit": "µM"}, {"measurement": "EC50", "setting": "EV-D68 Fermon strain", "result": "0.3 to 0.5", "unit": "µM"}, {"measurement": "EC50", "setting": "[8]", "result": "0.38 ± 0.01", "unit": "µM"}, {"measurement": "EC50", "setting": "[9]", "result": 0.321, "unit": "µM"}]}
